One compound from article PMC8348110, “A Novel Peptide Derived from the Transmembrane Domain of Romo1 Is a Promising Candidate for Sepsis Treatment and Multidrug-Resistant Bacteria” (International Journal of Molecular Sciences, 2021) can be followed below.

Values after ≈ are worked out from the molar mass of the structure shown. Residues, ends and D or L forms follow the SMILES beside them.

For series [1], the system named is Carbapenem-resistant P. aeruginosa (CRPA), clinical isolate. Format: cell-based, Pseudomonas aeruginosa. The following applies: 1 h. A digest of the protocol: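 Mid-log clinical isolates diluted to 5 × 10^5 CFU/mL in 10 mM sodium phosphate (pH 7.4) with 1% TS broth, exposed 1 h to peptides two-fold diluted from 64 μg/mL, then plated on TS agar overnight at 37 °C. MBC is the lowest concentration with no colonies.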

Series [2] relates to Vancomycin-resistant E. faecium NCCP 11522. It counts as cell-based, Enterococcus faecium. The following applies: Vancomycin-resistant NCCP 11522, 1 h. On the procedure: The minimum bactericidal concentration (MBC) was determined as previously described with minor modifications. Briefly, bacteria were cultured in the mid-log phase and diluted to 5 × 10^5 colony-forming unit (CFU)/mL in 10 mM sodium phosphate buffer (pH 7.4) with a 1% volume of TS broth. They were incubated for 1 h with various peptides which were two-fold diluted serially from 64 μg/mL to 0 μg/mL concentrations in a 96-well plate. The samples were inoculated TS agar plate and incubated overnight at 37 °C. The value of MBC was determined at the lowest concentrations at which no colonies were identified.
We used the CFU counting method to measure antibacterial activity, with all bacteria cultured to the mid-log phase in an appropriate broth medium. Bacterial CFUs were counted after overnight culture at 37 °C on TS or LB agar plates. The MBC value and antibacterial activity in blood components were determined as previously described. Mouse and human whole blood were collected and diluted with PBS (pH 7.4) to measure the ex vivo antibacterial activity of AMPR-22. For that test, AMPR-22 (10 μg) was added to each whole blood solution and incubated at 37 °C with shaking at 200 rpm. At each time point, it was incubated with bacteria (1 × 10^3 CFU) for 30 min. Each sample was inoculated on an LB agar plate, and CFU counting was performed. […]

Series [3] has as its system human PBMCs. In words: White blood cell toxicity assay (LIVE/DEAD stain, flow cytometry). Format: cell-based. As to conditions: freshly isolated PBMCs, 0 to 256 μg/mL for 30 min. On the procedure:
(§1) For the hemolytic assay, mouse and human whole blood was diluted with PBS (pH 7.4) and centrifuged for 10 min at 500× g. After removing the supernatant and rinsing the pellet three times with PBS, we resuspended the erythrocytes in PBS at 2% volume. The blood solution was added to the solution of peptides with two-fold serial dilution on a 96-well plate. After incubation for an hour at 37 °C, the plate was centrifuged at 2500× g for 10 min, and the absorbance of the supernatant was measured at 550 nm. The PBS-treated sample was the negative control, and the 0.1% Triton X-100–treated sample was the positive control. To measure white blood cell toxicity, mouse and human PBMCs were freshly isolated as previously described, and 70% ethanol (positive control) or AMPR-22 was administered using two-fold diluted concentrations (0 to 256 μg/mL) for 30 min. To measure cell death, a LIVE/DEAD® fixable green dead cell stain kit (Thermo Fisher Scientific, Waltham, MS, USA) was used following the manufacturer′s instructions, and flow cytometry was performed using a FACS Canto II (BD Biosciences, CA, USA). The toxicity of AMPR-22 was compared with negative (PBS-treated) and positive controls, and the data were analyzed using FlowJo software (Tree Star, OR, USA).

Series [4] has as its system mouse PBMCs. The description is as above. It counts as cell-based. The following applies: freshly isolated PBMCs, 0 to 256 μg/mL for 30 min. On the procedure: as §1
Series [5] has as its system BALB/c mice. In words: In vivo toxicity, single intravenous dose. The following applies: 100 mg/kg single intravenous dose, tracked for 15 days, compared with PBS-treated mice. The arrangement: species or system mouse. On the procedure:
We compared the toxicity of AMPR-22 in mammalian cells with that of AMPR-11 and AMPR-21. […] To investigate the toxicity of AMPR-22 to white blood cells, we isolated fresh peripheral blood mononuclear cells (PBMCs) from humans and mice. […] To check for in vivo toxicity before administering AMPR-22 to mice in a murine model of sepsis, we intravenously injected 100 mg/kg single dose of AMPR-22 (10-fold higher than the working dose) into BALB/c mice and tracked them for 15 days.
Figure 3 The cytotoxicity of AMPR-22. (A) The cell toxicity of the AMPR-11 analog peptides was measured using the MTT assay in HeLa and HEK293 cells. Daptomycin and magainin 2 were also tested. (B) A hemolysis assay was performed in mouse and human blood. The percentage of hemolyzed erythrocytes was measured using a spectrophotometer. Peptides were serially diluted and incubated with cells for an hour. (C) The toxicity of leukocytes was measured using a flow cytometric assay with LIVE/DEAD fixable dead cell™ stain dye and freshly isolated mouse and human PBMCs. […] Data represent the means ± SD of more than three independent experiments.

On to `CC[C@H](C)[C@H](NC(=O)CNC(=O)CNC(=O)[C@@H](NC(=O)[C@H](C)NC(=O)[C@H](CCSC)NC(=O)[C@H](Cc1ccccc1)NC(=O)[C@@H](NC(=O)CNC(=O)[C@H](Cc1ccccc1)NC(=O)[C@H](CCCCN)NC(=O)CNC(=O)CNC(=O)[C@H](CCCCN)NC(=O)[C@H](CCCCN)NC(=O)[C@H](CCSC)NC(=O)[C@H](CCSC)NC(=O)[C@H](CCCCN)NC(=O)[C@@H](N)CCCCN)[C@@H](C)O)[C@@H](C)CC)C(=O)N[C@@H](CCCNC(=N)N)C(=O)O` [AMPR-22] (H-KKMMKKGGKFGTFMAIGGIR-OH), for which, in series [1], the “MBC Value, CRPA” value is recorded as 4 µg/mL (≈ 1.83 µM) and the “MBC Value, Carbapenem-resistant P. aeruginosa” value amounted to 4 µg/mL (≈ 1.83 µM). For the same compound, the “MBC Value, Vancomycin-resistant E. faecium” value in series [2] was found to be 4 µg/mL (≈ 1.83 µM). In addition, the “Cytotoxic activity against human leukocytes” value in series [3] is listed as “negligible cytotoxic activity”. Further, the “Cytotoxic activity against mouse leukocytes” value in series [4] is on record as “negligible cytotoxic activity”. Also, in series [5], the “In vivo toxicity (weight loss or death)” value was “No significant changes”.
